Results published in patent US20130172340A1, “SUBSTITUTED 2-(9H-PURIN-9-YL) ACETIC ACID ANALOGUES AS INHIBITORS OF STAT3” (University of Central Flordia Research Foundation,, priority 2010, published 2013).

Key:
[1] = system: DU145, MDA-MB-231, Panc-1 and NIH3T3/v-Src cells; assay: CyQuant cell proliferation assay, cells that harbor constitutively active STAT3; assay type: cell-based; conditions: 48 hours, 30-500 μM, DU145, MDA-MB-231, Panc-1, NIH3T3/v-Src
Source text: Values, mean (SD of 3 independent experiments each in triplicate.
IC50 values shown below were derived from the plot of viability versus drug concentration.
(see also Table 2). The data represented by FIG. 4 were the results of experiments performed in triplicate.

DU 145 = assay: CyQuant cell viability and proliferation assay, DU 145; assay type: cell-based; conditions: Homo sapiens, 48 h, CyQuant viability
Experimental: (§1) Briefly, human breast (MDA-MB-231), pancreatic (Panc-1), and prostate (DU145) cancer cells, the v-Src transformed (NIH3T3/v-Src) fibroblasts or their normal counterparts (NIH3T3), and the murine thymic stromal epithelial cells (TE-71) were treated or not treated with 30-500 μM of the representative disclosed compounds, as indicated, for 48 h and assessed for viability using CyQuant cell proliferation kit. Values, mean (SD of 3 independent experiments each in triplicate.
(§2) Cells in culture in 6-well or 96-well plates were treated with or without agents for 24-144 h and subjected to CyQuant cell proliferation assay (Invitrogen Corp/Life Technologies Corp, Carlsbad, Calif.). IC50 values shown below were derived from the plot of viability versus drug concentration.
(§3) As aberrant STAT3 activity promotes cancer cell growth and survival, and tumor angiogenesis and metastasis (Turkson et al., 2004; Yue et al., 2009; Turkson et al., 2004; Turkson et al., 2001; Siddiquee et al., 2007; Siddiquee et al., 2007(b); Song et al., 2005; Turkson et al., 2005), the sensitivity of various cell lines to the purine scaffold treatment was tested. […] (see also Table 2). The data represented by FIG. 4 were the results of experiments performed in triplicate.

STAT3 = STAT3 (Mus musculus, UniProt P42227); assay: Surface plasmon resonance analysis of binding to STAT3; design: His; made in house; host or cells: E. coli BL21(DE3); species or system murine; conditions: SPR, purified STAT3 immobilized on HisCap Sensor Chip
Sequence of STAT3 (P42227 whole entry, the tested form may be a part): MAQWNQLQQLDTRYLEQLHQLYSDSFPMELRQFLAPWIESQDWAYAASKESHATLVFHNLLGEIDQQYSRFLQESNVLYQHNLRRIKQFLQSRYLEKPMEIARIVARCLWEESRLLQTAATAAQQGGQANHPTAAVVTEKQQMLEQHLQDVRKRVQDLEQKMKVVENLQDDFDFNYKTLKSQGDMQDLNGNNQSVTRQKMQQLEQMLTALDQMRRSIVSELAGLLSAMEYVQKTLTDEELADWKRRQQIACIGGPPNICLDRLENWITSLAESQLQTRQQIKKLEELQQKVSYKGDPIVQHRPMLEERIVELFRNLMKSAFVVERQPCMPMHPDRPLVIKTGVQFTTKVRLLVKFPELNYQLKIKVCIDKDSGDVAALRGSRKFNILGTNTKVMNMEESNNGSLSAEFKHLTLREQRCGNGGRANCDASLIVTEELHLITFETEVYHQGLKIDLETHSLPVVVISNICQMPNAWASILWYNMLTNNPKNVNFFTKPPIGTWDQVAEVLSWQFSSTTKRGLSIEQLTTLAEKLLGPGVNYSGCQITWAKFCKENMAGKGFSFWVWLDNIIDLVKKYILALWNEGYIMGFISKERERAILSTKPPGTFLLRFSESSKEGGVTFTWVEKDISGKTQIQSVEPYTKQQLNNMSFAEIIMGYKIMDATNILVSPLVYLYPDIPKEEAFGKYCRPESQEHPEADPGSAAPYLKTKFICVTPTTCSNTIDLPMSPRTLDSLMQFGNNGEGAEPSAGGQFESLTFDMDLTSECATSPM
Experimental: Coding regions for the murine STAT3 protein and STAT3 SH2 domain were amplified by PCR and cloned into vectors pET-44 Ek/LIC (Novagen) and pET SUMO (Invitrogen), respectively. […] Clones were sequenced to verify the correct sequences and orientation. His-tagged recombinant proteins were expressed in BL21(DE3) cells, and purified on Ni-ion sepharose column.
Surface Plasmon resonance analysis was performed to characterize the binding of compounds to STAT3, as previously reported (16). SensiQ and its analysis software Qdat (ICX Technologies, Oklahoma City, Okla.) were used to analyze the interaction between agents and the STAT3 protein and to determine the binding affinity. Purified STAT3 was immobilized on a HisCap Sensor Chip by injecting 50 μg/ml of STAT3 onto the chip. Various concentrations of compounds in running buffer (1×PBS, 0.5% DMSO) were passed over the sensor chip to produce response signals. The association and dissociation rate constants were calculated using the Qdat software. The ratio of the association and dissociation rate constants was determined as the affinity (KD).

pErk1/2 = assay: Immunoblotting of constitutive phospho-ErkMAPK in NIH3T3/v-Src and MDA-MB-231; assay type: cell-based; conditions: same treatments, all panels of FIG. 2
Experimental: (§4) Positions of proteins in gel are labeled; control lanes (0) are whole-cell lysates from 0.05% DMSO-treated cells. Data are representative of 3-4 independent determinations. Further discussion on the figure is provided in the Experimental section below.
(§5) Immunoprecipitation, and SDS/PAGE and Western blotting analysis were performed as previously described (6, 16). Primary antibodies used were anti-STAT3, pY705STAT3, pY416Src, Src, pErk1/2, Erk1/2, pSTAT1, STAT1, (Cell Signaling), and antiphosphotyrosine, clone 4G10 (Upstate Biotechnology, Lake Placid, N.Y.). Where appropriate, cells were stimulated for 12 min by 9 ng/μl rhEGF (12 μl into 3 ml culture) prior to preparation of whole-cell lysates for immunoprecipitation and/or immunoblotting analysis.

pY705STAT3 [2] = assay: Immunoblotting of constitutive STAT3 phosphorylation in NIH3T3/v-Src; assay type: cell-based, mouse; conditions: for constitutive STAT3 phosphorylation: NIH3T3/v-Src, 40 or 50 μM, 12, 24, or 48 h
Experimental: as §4, §5

NIH3T3 = assay: CyQuant cell viability and proliferation assay, NIH3T3; assay type: cell-based; conditions: Mus musculus, 48 h, CyQuant viability
Experimental: as §1, §2, §3

pSrc = assay: Immunoblotting of constitutive pSrc in NIH3T3/v-Src and MDA-MB-231; assay type: cell-based; conditions: same treatments, all panels of FIG. 2
Experimental: as §4, §5

TE-71 = assay: CyQuant cell viability and proliferation assay, TE-71; assay type: cell-based, murine; conditions: Mus musculus; 48 h, CyQuant viability
Experimental: as §1, §2, §3

NIH3T3/v-Src = assay: CyQuant cell viability and proliferation assay, NIH3T3/v-Src; assay type: cell-based; conditions: Mus musculus, 48 h, CyQuant viability
Experimental: as §1, §2, §3

pY705STAT3 [3] = assay: Immunoblotting of constitutive STAT3 phosphorylation in MDA-MB-231; assay type: cell-based, human; conditions: for constitutive STAT3 phosphorylation: MDA-MB-231, 40 or 50 μM, 12, 24, or 48 h
Experimental: as §4, §5

MDA-MB-231 = assay: CyQuant cell viability and proliferation assay, MDA-MB-231; assay type: cell-based; conditions: Homo sapiens, 48 h, CyQuant viability
Experimental: as §1, §2, §3

Panc-1 = assay: CyQuant cell viability and proliferation assay, Panc-1; assay type: cell-based; conditions: Homo sapiens, 48 h, CyQuant viability
Experimental: as §1, §2, §3

pY705-STAT3 = assay: Immunoblotting of EGF-induced STAT3 phosphorylation in NIH3T3/hEGFR; assay type: cell-based, mouse; conditions: EGF-stimulated
Experimental: As indicated, the cells were treated or untreated with the indicated agents at 40 or 50 μM for the indicated times and probing for pY705STAT3, STAT3, pErk1/2, Erk1/2, pSrc, Src, pSTAT1, STAT1, or pTyr (clone 4G10). Positions of proteins in gel are labeled; control lanes (0) are whole-cell lysates from 0.05% DMSO-treated cells. Data are representative of 3-4 independent determinations. Further discussion on the figure is provided in the Experimental section below.
as §5
The effect of 8bj and 17b on ligand-stimulated STAT activation was also examined. […] These findings were consistent with other reports regarding other SH2 domain binding STAT3 inhibitors. (Turkson et al., 2001; Siddiquee et al., 2007; Siddiquee et al., 2007(b)).

Compound	malignant cell viability [1]	IC50 (DU 145)	Kd (STAT3)	constitutive levels of phospho-ErkMAPK (pErk1/2) (pErk1/2)	STAT3 phosphorylation during prolonged treatment (pY705STAT3 [2]; NIH3T3/v-Src fibroblasts, time course)	constitutive STAT3 phosphorylation (pY705STAT3 [2])	IC50 (NIH3T3)	constitutive levels of Src (pSrc) (pSrc)	IC50 (TE-71)	IC50 (NIH3T3/v-Src)	constitutive STAT3 phosphorylation (pY705STAT3 [3])	time after treatment at which STAT3 phosphorylation was inhibited (pY705STAT3 [3]; MDA-MB-231, time course)	STAT3 phosphorylation after 6 h of treatment (pY705STAT3 [3]; MDA-MB-231, time course, 6 h)	IC50 (MDA-MB-231)	IC50 (Panc-1)	epidermal growth factor (EGF)-induced STAT3 phosphorylation (pY705-STAT3)
O=C(O)Cn1cnc2c(NC3CCCC3)nc(NCc3ccc(C4CCCCC4)cc3)nc21 [8be, 2-(2-((4-cyclohexylbenzyl)amino)-6-(cyclopentylamino)-9H-purin-9-yl)acetic acid]	decrease in malignant cell viability	68.6 ± 1.8 µM	16.7 µM	no effect	temporarily restored	inhibition of constitutive STAT3 phosphorylation	> 500 µM	no effect	> 500 µM	100 ± 2.2 µM	inhibition of constitutive STAT3 phosphorylation	15 to 30 min	restoration of STAT3 phosphorylation	145 ± 4.4 µM	176 ± 5.3 µM	–
CC(C)CNc1nc(NCc2ccc(C3CCCCC3)cc2)nc2c1ncn2CC(=O)O [8bj, 2-(2-((4-cyclohexylbenzyl)amino)-6-(isobutylamino)-9H-purin-9-yl)acetic acid]	decrease in malignant cell viability	65.3 ± 2.3 µM	39 µM	no effect	–	inhibition of constitutive STAT3 phosphorylation	> 500 µM	no effect	> 500 µM	41.1 ± 4.6 µM	inhibition of constitutive STAT3 phosphorylation	–	–	66.1 ± 2.1 µM	77.2 ± 1.9 µM	selectively inhibited
